Experimental data: ChEMBL document CHEMBL2203247, “Ribonuclease-Activated Cancer Prodrug” (ACS Med Chem Lett, 2012)

How the values were obtained:
MCF7 [1] = experiment: Antiproliferative activity against human MCF7 cells assessed as incorporation of [methyl-3H]thymidine into cellular DNA in serum free medium in presence of 6.2 ug/mL RNase 1; type: functional, cell-based
MCF7 [2] = experiment: Antiproliferative activity against human MCF7 cells assessed as incorporation of [methyl-3H]thymidine into cellular DNA in serum free medium in absence of 6.2 ug/mL RNase 1; type: functional, cell-based
[3] = Prodrug stability assessed as 4-hydroxytamoxifen release at 40 uM in serum free medium in absence of RNase 1; type: ADME
[4] = Prodrug stability assessed as 4-hydroxytamoxifen release at 40 uM in pH 7.4 ribonuclease free 0.10 M sodium phosphate buffer containing NaCl and in absence of RNase 1; type: physicochemical; settings: pH 7.4, 40 µM
[5] = Prodrug stability assessed as compound degradation at 37 degC after 11 hrs in absence of ribonuclease 1 at pH 6.0 by HPLC analysis; type: physicochemical; settings: buffer, pH 6, 11 h
Ribonuclease pancreatic = target: T1, Ribonuclease pancreatic (Homo sapiens, UniProt P07998); experiment: Prodrug activation assessed as half life for ribonuclease 1 mediated 4-hydroxytamoxifen release in MES-NaOH buffer at pH 6.0 by HPLC analysis
T1 sequence (P07998 whole entry): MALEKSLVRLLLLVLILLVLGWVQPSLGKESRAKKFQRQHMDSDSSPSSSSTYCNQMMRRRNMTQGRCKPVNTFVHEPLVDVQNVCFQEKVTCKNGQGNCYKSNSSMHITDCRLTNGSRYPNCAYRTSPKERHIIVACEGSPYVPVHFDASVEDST

Which results are given for `CCC(=C(c1ccc(O)cc1)c1ccc(OCCN(C)C)cc1)c1ccccc1`?
IC50 (MCF7 [1]): 2.7 µM; IC50 (MCF7 [2]): 2.7 µM

With `CC/C(=C(/c1ccc(OCCN(C)C)cc1)c1ccc(OP(=O)(O)O[C@H]2[C@@H](O)[C@H](n3ccc(=O)[nH]c3=O)O[C@@H]2CO)cc1)c1ccccc1` as the molecule, how does the IC50 (MCF7 [1]) read?
Its IC50 is 5.2 µM.

And the t1/2 [3]?
The t1/2 was 9 h.

What about the IC50 (MCF7 [2]) of the same molecule?
Its IC50 is 16.7 µM.

What about the t1/2 [4] of the same molecule?
Its t1/2 is 9.4 h.

And the Drug degradation [5]?
Its Drug degradation is less than 6%.

And the t1/2 (Ribonuclease pancreatic)?
Its t1/2 is 4 h.
